Patent US20240209028A1, “CNP COMPOUNDS” (priority 2022, published 2024)
Starred links: 1 amine or outer side, 2 acyl side, 3 side chain; linkers in the order of their positions; H or OH if unused. Positions of bridges follow the written chain, without caps; N, C: chain ends. Residues, ends and D or L forms follow the SMILES beside them. *: point of attachment. C18 diacid = O=C(O)CCCCCCCCCCCCCCCCC(=O)*; γGlu = O=C(O)[C@H](CCC(=O)[*:2])N[*:1]; AEEA = NCCOCCOCC(=O)O

molecular target: T1, human natriuretic peptide receptor 2 (hNPR2) (Homo sapiens, UniProt P20594); assay: In vitro hNPR2 activity assay (cGMP GloSensor reporter, HEK293); type: cell-based; conditions: potency relative to CNP22 (0065)
T1 construct: expressed in transfected cells; host or cells: HEK293 (ATCC CRL-1573), clone 35, co-transfected with pGloSensor-42F
T1 sequence (P20594 23-1047): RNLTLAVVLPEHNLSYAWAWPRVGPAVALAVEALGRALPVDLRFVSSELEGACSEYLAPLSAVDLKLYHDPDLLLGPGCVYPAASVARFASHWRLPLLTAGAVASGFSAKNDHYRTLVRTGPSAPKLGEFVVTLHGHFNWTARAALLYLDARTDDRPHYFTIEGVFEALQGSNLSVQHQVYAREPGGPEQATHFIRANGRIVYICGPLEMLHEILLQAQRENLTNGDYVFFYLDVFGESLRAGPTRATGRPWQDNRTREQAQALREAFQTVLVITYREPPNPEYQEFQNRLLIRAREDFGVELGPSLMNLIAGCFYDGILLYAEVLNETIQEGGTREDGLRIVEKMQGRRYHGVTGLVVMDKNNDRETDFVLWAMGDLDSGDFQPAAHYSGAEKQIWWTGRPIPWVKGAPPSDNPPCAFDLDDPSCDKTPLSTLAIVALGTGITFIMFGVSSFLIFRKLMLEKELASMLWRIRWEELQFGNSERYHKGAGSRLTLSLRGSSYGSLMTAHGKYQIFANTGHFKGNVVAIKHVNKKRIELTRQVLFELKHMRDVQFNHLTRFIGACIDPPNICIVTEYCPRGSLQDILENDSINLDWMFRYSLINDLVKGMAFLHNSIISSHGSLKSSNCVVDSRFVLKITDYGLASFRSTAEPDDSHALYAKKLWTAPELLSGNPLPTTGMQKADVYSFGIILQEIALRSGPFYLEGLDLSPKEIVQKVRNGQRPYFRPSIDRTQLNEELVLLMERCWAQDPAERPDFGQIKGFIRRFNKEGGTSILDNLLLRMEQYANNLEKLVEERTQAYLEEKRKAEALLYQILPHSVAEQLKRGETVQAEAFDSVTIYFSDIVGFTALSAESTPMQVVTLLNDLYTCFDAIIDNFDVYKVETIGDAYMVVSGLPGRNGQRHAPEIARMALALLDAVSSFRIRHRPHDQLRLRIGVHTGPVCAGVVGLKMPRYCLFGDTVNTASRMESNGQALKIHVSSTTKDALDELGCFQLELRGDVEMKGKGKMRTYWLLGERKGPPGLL
Method in brief: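 Potency is the EC50 from a four-parameter logistic fit, also expressed relative to the in-plate CNP22 control (×100), with at least two replicates. Compounds (ten concentrations, […], HSA-free diluent with 1% OVA, 0.01% Tween20) were incubated 30 min at 37 °C on HEK293 cells co-expressing hNPR2 and a GloSensor cGMP luciferase. Luminescence detected with Bright-Glo.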

SMILES | hNPR2 0% HSA. [EC50% rel CNP]
CC[C@H](C)[C@@H]1NC(=O)[C@H](CCCNC(=N)N)NC(=O)[C@H](CC(=O)O)NC(=O)[C@H](CC(C)C)NC(=O)[C@@H]2CCCN2C(=O)[C@H](CC(C)C)NC(=O)CNC(=O)[C@H](Cc2ccccc2)NC(=O)[C@@H](NC(=O)CNC(=O)[C@H](CO)NC(=O)[C@H](CO)NC(=O)[C@H](CC(C)C)NC(=O)CNC(=O)[C@H](CCCCN)NC(=O)[C@H](CCCCN)NC(=O)[C@H](CCC(N)=O)NC(=O)[C@H](C)NC(=O)CNC(=O)[C@H](CCCCN)NC(=O)[C@H](Cc2ccc(O)cc2)NC(=O)CNC(=O)CNC(=O)CNC(=O)CC[C@H](NC(=O)CC[C@H](NC(=O)CC[C@H](NC(=O)CC[C@H](NC(=O)CCCCCCCCCCCCCCCCC(=O)O)C(=O)O)C(=O)O)C(=O)O)C(=O)O)CSSC[C@@H](C(=O)O)NC(=O)CNC(=O)[C@H](CC(C)C)NC(=O)CNC(=O)[C@H](CO)NC(=O)[C@H](CC(C)C)NC(=O)[C@H](CO)NC(=O)CNC1=O [compound 1387] ({C18 diacid-γGlu-γGlu-γGlu-γGlu}-GGGYKGAQKKGLSSGCFGLPLDRIGSLSGLGC-OH; disulfide 16-32; C-terminus assumed) | 20.6%
CC[C@H](C)[C@@H]1NC(=O)[C@H](CCCNC(=N)N)NC(=O)[C@H](CC(=O)O)NC(=O)[C@H](CC(C)C)NC(=O)[C@@H]2CCCN2C(=O)[C@H](CC(C)C)NC(=O)CNC(=O)[C@H](Cc2ccccc2)NC(=O)[C@@H](NC(=O)CNC(=O)[C@H](CCCCN)NC(=O)[C@H](CO)NC(=O)[C@H](CC(C)C)NC(=O)CNC(=O)[C@H](CCCCN)NC(=O)[C@H](CCCCN)NC(=O)[C@H](CCC(N)=O)NC(=O)[C@H](C)NC(=O)CNC(=O)[C@H](CCCCN)NC(=O)[C@H](Cc2ccc(O)cc2)NC(=O)CNC(=O)CNC(=O)CNC(=O)CC[C@H](NC(=O)CC[C@H](NC(=O)CC[C@H](NC(=O)CC[C@H](NC(=O)CCCCCCCCCCCCCCCCC(=O)O)C(=O)O)C(=O)O)C(=O)O)C(=O)O)CSSC[C@@H](C(=O)O)NC(=O)CNC(=O)[C@H](CC(C)C)NC(=O)CNC(=O)[C@H](CO)NC(=O)[C@H](CC(C)C)NC(=O)[C@H](CO)NC(=O)CNC1=O [compound 1388] ({C18 diacid-γGlu-γGlu-γGlu-γGlu}-GGGYKGAQKKGLSKGCFGLPLDRIGSLSGLGC-OH; disulfide 16-32) | 23.5%
CC[C@H](C)[C@@H]1NC(=O)[C@H](CCCNC(=N)N)NC(=O)[C@H](CC(=O)O)NC(=O)[C@H](CC(C)C)NC(=O)[C@@H]2CCCN2C(=O)[C@H](CC(C)C)NC(=O)CNC(=O)[C@H](Cc2ccccc2)NC(=O)[C@@H](NC(=O)CNC(=O)[C@H](CO)NC(=O)[C@H](CO)NC(=O)[C@H](CC(C)C)NC(=O)CNC(=O)[C@H](CCCCN)NC(=O)[C@H](CCCCN)NC(=O)[C@H](CCC(N)=O)NC(=O)[C@H](C)NC(=O)CNC(=O)[C@H](CCC(=O)O)NC(=O)[C@H](Cc2ccc(O)cc2)NC(=O)[C@H](CCCCN)NC(=O)[C@H](CCCNC(=N)N)NC(=O)[C@H](C)NC(=O)[C@H](CCC(N)=O)NC(=O)[C@@H]2CCCN2C(=O)[C@H](Cc2c[nH]cn2)NC(=O)[C@H](CCC(=O)O)NC(=O)[C@H](CCC(N)=O)NC(=O)CC[C@H](NC(=O)CC[C@H](NC(=O)CC[C@H](NC(=O)CC[C@H](NC(=O)CCCCCCCCCCCCCCCCC(=O)O)C(=O)O)C(=O)O)C(=O)O)C(=O)O)CSSC[C@@H](C(=O)O)NC(=O)CNC(=O)[C@H](CC(C)C)NC(=O)CNC(=O)[C@H](CO)NC(=O)[C@H](CC(C)C)NC(=O)[C@H](CO)NC(=O)CNC1=O [compound 1390] ({C18 diacid-γGlu-γGlu-γGlu-γGlu}-QEHPQARKYEGAQKKGLSSGCFGLPLDRIGSLSGLGC-OH; disulfide 21-37; C-terminus assumed) | 84.6%
CC[C@H](C)[C@@H]1NC(=O)[C@H](CCCNC(=N)N)NC(=O)[C@H](CC(=O)O)NC(=O)[C@H](CC(C)C)NC(=O)[C@@H]2CCCN2C(=O)[C@H](CC(C)C)NC(=O)CNC(=O)[C@H](Cc2ccccc2)NC(=O)[C@@H](NC(=O)CNC(=O)[C@H](CCCCN)NC(=O)[C@H](CO)NC(=O)CNC(=O)CNC(=O)[C@H](CCCCN)NC(=O)[C@H](CCCCN)NC(=O)[C@H](CCC(N)=O)NC(=O)[C@H](C)NC(=O)CNC(=O)[C@H](CCC(=O)O)NC(=O)[C@H](Cc2ccc(O)cc2)NC(=O)COCCOCCNC(=O)COCCOCCNC(=O)COCCOCCNC(=O)COCCOCCNC(=O)CC[C@H](NC(=O)CCCCCCCCCCCCCCCCC(=O)O)C(=O)O)CSSC[C@@H](C(=O)O)NC(=O)CNC(=O)[C@H](CC(C)C)NC(=O)CNC(=O)[C@H](CO)NC(=O)[C@H](CC(C)C)NC(=O)[C@H](CO)NC(=O)CNC1=O [compound 1391] ({C18 diacid-γGlu-AEEA-AEEA-AEEA-AEEA}-YEGAQKKGGSKGCFGLPLDRIGSLSGLGC-OH; disulfide 13-29) | 37.9%
CC[C@H](C)[C@@H]1NC(=O)[C@H](CCCNC(=N)N)NC(=O)[C@H](CC(=O)O)NC(=O)[C@H](CC(C)C)NC(=O)[C@@H]2CCCN2C(=O)[C@H](CC(C)C)NC(=O)CNC(=O)[C@H](Cc2ccccc2)NC(=O)[C@@H](NC(=O)CNC(=O)[C@H](CCC(N)=O)NC(=O)[C@H](CO)NC(=O)[C@H](CC(C)C)NC(=O)CNC(=O)[C@H](CCCCN)NC(=O)[C@H](CCCCN)NC(=O)[C@H](CCC(N)=O)NC(=O)[C@H](C)NC(=O)CNC(=O)[C@H](CCC(=O)O)NC(=O)[C@H](Cc2ccc(O)cc2)NC(=O)COCCOCCNC(=O)COCCOCCNC(=O)COCCOCCNC(=O)COCCOCCNC(=O)CC[C@H](NC(=O)CCCCCCCCCCCCCCCCC(=O)O)C(=O)O)CSSC[C@@H](C(=O)O)NC(=O)CNC(=O)[C@H](CC(C)C)NC(=O)CNC(=O)[C@H](CO)NC(=O)[C@H](CC(C)C)NC(=O)[C@H](CO)NC(=O)CNC1=O [compound 1393] ({C18 diacid-γGlu-AEEA-AEEA-AEEA-AEEA}-YEGAQKKGLSQGCFGLPLDRIGSLSGLGC-OH; disulfide 13-29) | 27.8%
CC[C@H](C)[C@@H]1NC(=O)[C@H](CCCNC(=N)N)NC(=O)[C@H](CC(=O)O)NC(=O)[C@H](CC(C)C)NC(=O)[C@@H]2CCCN2C(=O)[C@H](CC(C)C)NC(=O)CNC(=O)[C@H](Cc2ccccc2)NC(=O)[C@@H](NC(=O)CNC(=O)[C@H](CCC(N)=O)NC(=O)[C@H](CO)NC(=O)[C@H](CC(C)C)NC(=O)CNC(=O)[C@H](CCCCN)NC(=O)[C@H](CCCCN)NC(=O)[C@H](CCC(N)=O)NC(=O)[C@H](C)NC(=O)CNC(=O)[C@H](CCC(=O)O)NC(=O)[C@H](Cc2ccc(O)cc2)NC(=O)[C@H](CCCCN)NC(=O)[C@H](CCCNC(=N)N)NC(=O)[C@H](C)NC(=O)[C@H](CCC(N)=O)NC(=O)[C@@H]2CCCN2C(=O)[C@H](Cc2c[nH]cn2)NC(=O)[C@H](CCC(=O)O)NC(=O)[C@H](CCC(N)=O)NC(=O)COCCOCCNC(=O)COCCOCCNC(=O)CC[C@H](NC(=O)CCCCCCCCCCCCCCCCC(=O)O)C(=O)O)CSSC[C@@H](C(=O)O)NC(=O)CNC(=O)[C@H](CC(C)C)NC(=O)CNC(=O)[C@H](CO)NC(=O)[C@H](CC(C)C)NC(=O)[C@H](CO)NC(=O)CNC1=O [compound 1394] ({C18 diacid-γGlu-AEEA-AEEA}-QEHPQARKYEGAQKKGLSQGCFGLPLDRIGSLSGLGC-OH; disulfide 21-37) | 93.9%
CC[C@H](C)[C@@H]1NC(=O)[C@H](CCCNC(=N)N)NC(=O)[C@H](CC(=O)O)NC(=O)[C@H](CC(C)C)NC(=O)[C@@H]2CCCN2C(=O)[C@H](CC(C)C)NC(=O)CNC(=O)[C@H](Cc2ccccc2)NC(=O)[C@@H](NC(=O)CNC(=O)[C@H](CCC(N)=O)NC(=O)[C@H](CO)NC(=O)[C@H](CC(C)C)NC(=O)CNC(=O)[C@H](CCCCN)NC(=O)[C@H](CCCCN)NC(=O)[C@H](CCC(N)=O)NC(=O)[C@H](C)NC(=O)CNC(=O)[C@H](CCC(=O)O)NC(=O)[C@H](Cc2ccc(O)cc2)NC(=O)[C@H](CCCCN)NC(=O)[C@H](C)NC(=O)[C@H](C)NC(=O)[C@H](CCC(N)=O)NC(=O)[C@@H]2CCCN2C(=O)[C@H](Cc2c[nH]cn2)NC(=O)[C@H](CCC(=O)O)NC(=O)[C@H](CCC(N)=O)NC(=O)COCCOCCNC(=O)COCCOCCNC(=O)CC[C@H](NC(=O)CCCCCCCCCCCCCCCCC(=O)O)C(=O)O)CSSC[C@@H](C(=O)O)NC(=O)CNC(=O)[C@H](CC(C)C)NC(=O)CNC(=O)[C@H](CO)NC(=O)[C@H](CC(C)C)NC(=O)[C@H](CO)NC(=O)CNC1=O [compound 1395] ({C18 diacid-γGlu-AEEA-AEEA}-QEHPQAAKYEGAQKKGLSQGCFGLPLDRIGSLSGLGC-OH; disulfide 21-37) | 60.2%
